Tested on: Bovine cardiac myofibrils
Experiment: In vitro model of dose-dependent myofibril ATPase modulation (AC1.4, pyruvate kinase/lactate dehydrogenase-coupled ATPase assay at pCa25)
Assay type: biochemical
Details: concentration at which ATPase activity was 1.4-fold higher than the bottom of the dose curve, mean of a minimum of two independent tests
How it was run: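 We measure calcium-buffered ATPase activity of detergent-skinned bovine cardiac myofibrils at pH 6.80 and 22° C with 1 mM ATP, using a PK/LDH-coupled NADH readout at 340 nm. Values come from four-parameter dose-response fits, averaged over at least two independent runs.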

AC1.4 | SMILES
2.1245 µM | CS(=O)(=O)c1cncc(C(=O)N2C[C@@H](F)C[C@@H]2C(=O)N[C@@H](c2cc(F)c(Cl)cc2F)C2CC2)c1 [Example 488, (4S)-N-((R)-(4-chloro-2,5-difluorophenyl)(cyclopropyl)methyl)-4-fluoro-1-((5-(methylsulfonyl)-3-pyridinyl)carbonyl)-D-prolinamide]
2.2325 µM | O=C(NCc1ccc(C(F)(F)F)cc1)[C@H]1CCCN1C(=O)[C@H]1CCCN(S(=O)(=O)N2CC(NC(=O)C(F)(F)F)C2)C1 [Example 489, 1-(((3S)-1-((3-((trifluoroacetyl)amino)-1-azetidinyl)sulfonyl)-3-piperidinyl)carbonyl)-N-(4-(trifluoromethyl)benzyl)-D-prolinamide]
2.1625 µM | CS(=O)(=O)c1ccc(C(=O)N2[C@@H](C(=O)N[C@@H](c3ccc(C(F)(F)F)cc3F)C3CC3)C[C@H]3C[C@H]32)cn1 [Example 490, (1R,3R,5R)-N-((R)-cyclopropyl(2-fluoro-4-(trifluoromethyl)phenyl)methyl)-2-((6-(methylsulfonyl)-3-pyridinyl)carbonyl)-2-azabicyclo[3.1.0]hexane-3-carboxamide]
2.181 µM | O=C(N[C@@H](c1ccc(C(F)(F)F)c(F)c1)C1CC1)[C@H]1C[C@H]2C[C@H]2N1C(=O)c1cncc(S(=O)(=O)C2CC2)c1 [Example 491, (1R,3R,5R)-N-((R)-cyclopropyl(3-fluoro-4-(trifluoromethyl)phenyl)methyl)-2-((5-(cyclopropylsulfonyl)-3-pyridinyl)carbonyl)-2-azabicyclo[3.1.0]hexane-3-carboxamide]
2.256 µM | COC1CN(S(=O)(=O)N2CCC[C@H](C(=O)N3CCC[C@@H]3C(=O)NCc3ccc(C(F)(F)F)cc3)C2)C1 [Example 492, 1-(((3S)-1-((3-methoxy-1-azetidinyl)sulfonyl)-3-piperidinyl)carbonyl)-N-(4-(trifluoromethyl)benzyl)-D-prolinamide]
2.271 µM | O=C(O[C@@H]1C[C@H](C(=O)N[C@@H](c2cc(F)c(Cl)cc2F)C2COC2)N(C(=O)c2ccnc(C(F)(F)F)c2)C1)c1ccnc(C(F)(F)F)c1 [Example 493, (3R,5R)-5-(((R)-(4-chloro-2,5-difluorophenyl)(3-oxetanyl)methyl)carbamoyl)-1-((2-(trifluoromethyl)-4-pyridinyl)carbonyl)-3-pyrrolidinyl2-(trifluoromethyl)-4-pyridinecarboxylate]
2.274 µM | C[C@@H](NC(=O)[C@H]1C[C@H](F)CN1C(=O)[C@H]1CCCN(S(=O)(=O)N2CC(C#N)C2)C1)c1cccc(C(F)(F)F)c1 [Example 494, (2R,4S)-1-((S)-1-((3-cyanoazetidin-1-yl)sulfonyl)piperidine-3-carbonyl)-4-fluoro-N-((R)-1-(3-(trifluoromethyl)phenyl)ethyl)pyrrolidine-2-carboxamide]
2.278 µM | O=C(N[C@@H](c1ccc(C(F)(F)F)cc1F)C1CC1)[C@H]1C[C@H]2C[C@H]2N1C(=O)c1ccnc(C(F)(F)F)c1 [Example 495, (1R,3R,5R)-N-((R)-cyclopropyl(2-fluoro-4-(trifluoromethyl)phenyl)methyl)-2-((2-(trifluoromethyl)-4-pyridinyl)carbonyl)-2-azabicyclo[3.1.0]hexane-3-carboxamide]
2.291 µM | N#CC1CN(S(=O)(=O)N2CCC[C@H](C(=O)N3CCC[C@@H]3C(=O)NCc3cccc(F)c3)C2)C1 [Example 496, 1-(((3S)-1-((3-cyano-1-azetidinyl)sulfonyl)-3-piperidinyl)carbonyl)-N-(3-fluorobenzyl)-D-prolinamide]
2.3075 µM | CC(C)(C(N)=O)c1cccc(C(=O)N2[C@@H](C(=O)N[C@@H](c3ccc(C(F)(F)F)cc3F)C3COC3)C[C@H]3C[C@H]32)c1 [Example 497, (1R,3R,5R)-2-(3-(1-amino-2-methyl-1-oxopropan-2-yl)benzoyl)-N—((R)-(2-fluoro-4-(trifluoromethyl)phenyl)(oxetan-3-yl)methyl)-2-azabicyclo[3.1.0]hexane-3-carboxamide]
2.335 µM | Cc1cc(F)cc(CNC(=O)[C@H]2CCCN2C(=O)[C@H]2CCCN(S(=O)(=O)N3CC(C#N)C3)C2)c1 [Example 498, 1-(((3S)-1-((3-cyano-1-azetidinyl)sulfonyl)-3-piperidinyl)carbonyl)-N-(3-fluoro-5-methylbenzyl)-D-prolinamide]
2.344 µM | CS(=O)(=O)C1CN(S(=O)(=O)N2CCC[C@H](C(=O)N3CCC[C@@H]3C(=O)NCc3ccc(C(F)(F)F)cn3)C2)C1 [Example 499, 1-(((3S)-1-((3-(methylsulfonyl)-1-azetidinyl)sulfonyl)-3-piperidinyl)carbonyl)-N-((5-(trifluoromethyl)-2-pyridinyl)methyl)-D-prolinamide]
2.346 µM | O=C(N[C@@H](c1cc(F)c(Cl)cc1F)C1COC1)[C@H]1C[C@H]2C[C@H]2N1C(=O)c1ccnc(C(F)(F)F)n1 [Example 500, (1R,3R,5R)-N-((R)-(4-chloro-2,5-difluorophenyl)(3-oxetanyl)methyl)-2-((2-(trifluoromethyl)-4-pyrimidinyl)carbonyl)-2-azabicyclo[3.1.0]hexane-3-carboxamide]
2.3495 µM | O=C(N[C@@H](c1cc(F)c(Cl)cc1F)C1COC1)[C@H]1C[C@@H](O)CN1C(=O)c1ccnc(C(F)F)c1 [Example 501, (4R)-N-((R)-(4-chloro-2,5-difluorophenyl)(3-oxetanyl)methyl)-1-((2-(difluoromethyl)-4-pyridinyl)carbonyl)-4-hydroxy-D-prolinamide]
2.3515 µM | N#CC1CN(S(=O)(=O)N2CCC[C@H](C(=O)N3CCC[C@@H]3C(=O)NC3CCOc4ccccc43)C2)C1 (stereo partly drawn) [Example 502, (2R)-N-(chroman-4-yl)-1-((S)-1-((3-cyanoazetidin-l-yl)sulfonyl)piperidine-3-carbonyl)pyrrolidine-2-carboxamide]
2.3565 µM | N#CC1CN(S(=O)(=O)N2CC(C(=O)N3CCC[C@@H]3C(=O)NCc3ccc(C(F)(F)F)cc3)C3CC32)C1 (stereo partly drawn) [Example 503, (2R)-1-(2-((3-cyanoazetidin-1-yl)sulfonyl)-2-azabicyclo[3.1.0]hexane-4-carbonyl)-N-(4-(trifluoromethyl)benzyl)pyrrolidine-2-carboxamide]
2.3635 µM | CC(C)c1cc(C(=O)N2[C@@H](C(=O)N[C@@H](c3cc(F)c(Cl)cc3F)C3COC3)C[C@H]3C[C@H]32)ccn1 [Example 504, (1R,3R,5R)-N-((R)-(4-chloro-2,5-difluorophenyl)(3-oxetanyl)methyl)-2-((2-(2-propanyl)-4-pyridinyl)carbonyl)-2-azabicyclo[3.1.0]hexane-3-carboxamide]
2.1945 µM | CS(=O)(=O)c1ccc(C(=O)N2CCC[C@@H]2C(=O)N[C@@H](c2ccc(C(F)(F)F)cc2F)C2CC2)cn1 [Example 505, N-((R)-cyclopropyl(2-fluoro-4-(trifluoromethyl)phenyl)methyl)-1-((6-(methylsulfonyl)-3-pyridinyl)carbonyl)-D-prolinamidev]
2.23 µM | CS(=O)(=O)c1cccc(C(=O)N2C[C@H](O)C[C@@H]2C(=O)N[C@@H](c2ccc(C(F)(F)F)cc2F)C2CC2)c1 [Example 506, (4R)-N-((R)-cyclopropyl(2-fluoro-4-(trifluoromethyl)phenyl)methyl)-4-hydroxy-1-(3-(methylsulfonyl)benzoyl)-D-prolinamide]
2.38 µM | N#CC1CC(S(=O)(=O)c2cccc(C(=O)N3CCC[C@@H]3C(=O)NCc3ccc(C(F)(F)F)nc3)c2)C1 (stereo partly drawn) [Example 507, (R)-1-(3-((3-cyanocyclobutyl)sulfonyl)benzoyl)-N-((6-(trifluoromethyl)pyridin-3-yl)methyl)pyrrolidine-2-carboxamide]
2.3805 µM | Cc1ccc(F)cc1CNC(=O)[C@H]1CCCN1C(=O)[C@H]1CCCN(S(=O)(=O)N2CC(C#N)C2)C1 [Example 508, 1-(((3S)-1-((3-cyano-1-azetidinyl)sulfonyl)-3-piperidinyl)carbonyl)-N-(5-fluoro-2-methylbenzyl)-D-prolinamide]
2.3995 µM | CCC1(O)CN(S(=O)(=O)N2CCC[C@H](C(=O)N3CCC[C@@H]3C(=O)NCc3ccc(C(F)(F)F)cc3F)C2)C1 [Example 509, 1-(((3S)-1-((3-ethyl-3-hydroxy-1-azetidinyl)sulfonyl)-3-piperidinyl)carbonyl)-N-(2-fluoro-4-(trifluoromethyl)benzyl)-D-prolinamide]
2.2505 µM | CS(=O)(=O)c1cc(C(=O)N2C[C@@H](F)C[C@@H]2C(=O)N[C@@H](c2cc(F)c(Cl)cc2F)C2CC2)ccn1 [Example 510, (4S)-N-((R)-(4-chloro-2,5-difluorophenyl)(cyclopropyl)methyl)-4-fluoro-1-((2-(methylsulfonyl)-4-pyridinyl)carbonyl)-D-prolinamide]
2.4195 µM | C[C@@H](NC(=O)[C@H]1CCCN1C(=O)[C@@H]1CN(S(=O)(=O)N2CC(C#N)C2)CCN1)c1ccc(Cl)cc1 [Example 511, N-((1R)-1-(4-chlorophenyl)ethyl)-1-(((2S)-4-((3-cyano-1-azetidinyl)sulfonyl)-2-piperazinyl)carbonyl)-D-prolinamide]
2.252 µM | CS(=O)(=O)c1cncc(C(=O)N2C[C@H]3C[C@H]3[C@@H]2C(=O)N[C@@H](c2cc(F)c(Cl)cc2F)C2CC2)c1 [Example 512, (1R,2R,5S)-N-((R)-(4-chloro-2,5-difluorophenyl)(cyclopropyl)methyl)-3-((5-(methylsulfonyl)-3-pyridinyl)carbonyl)-3-azabicyclo[3.1.0]hexane-2-carboxamide]
2.3655 µM | CCS(=O)(=O)c1cccc(C(=O)N2[C@@H](C(=O)N[C@H](C)c3cc(F)c(Cl)cc3F)C[C@H]3C[C@H]32)c1 [Example 513, (1R,3R,5R)-N-((1R)-1-(4-chloro-2,5-difluorophenyl)ethyl)-2-(3-(ethylsulfonyl)benzoyl)-2-azabicyclo[3.1.0]hexane-3-carboxamide]

Source: patent publication US11780826B2 (Amgen Inc., priority 2017, dated 2023)
